These compounds were tested against T1, EHMT2 (Homo sapiens, UniProt Q96KQ7) (assay: MDA-MB-231 H3K9me2 in-cell Western assay (EHMT2 ICW)). Settings: MDA-MB-231 cells, H3K9me2 in-cell Western; read-out: EHMT2 ICW (IC50 μM).
T1 construct: endogenous in cells; host or cells: MDA-MB-231 (ATCC)
T1 sequence (Q96KQ7 1-1210): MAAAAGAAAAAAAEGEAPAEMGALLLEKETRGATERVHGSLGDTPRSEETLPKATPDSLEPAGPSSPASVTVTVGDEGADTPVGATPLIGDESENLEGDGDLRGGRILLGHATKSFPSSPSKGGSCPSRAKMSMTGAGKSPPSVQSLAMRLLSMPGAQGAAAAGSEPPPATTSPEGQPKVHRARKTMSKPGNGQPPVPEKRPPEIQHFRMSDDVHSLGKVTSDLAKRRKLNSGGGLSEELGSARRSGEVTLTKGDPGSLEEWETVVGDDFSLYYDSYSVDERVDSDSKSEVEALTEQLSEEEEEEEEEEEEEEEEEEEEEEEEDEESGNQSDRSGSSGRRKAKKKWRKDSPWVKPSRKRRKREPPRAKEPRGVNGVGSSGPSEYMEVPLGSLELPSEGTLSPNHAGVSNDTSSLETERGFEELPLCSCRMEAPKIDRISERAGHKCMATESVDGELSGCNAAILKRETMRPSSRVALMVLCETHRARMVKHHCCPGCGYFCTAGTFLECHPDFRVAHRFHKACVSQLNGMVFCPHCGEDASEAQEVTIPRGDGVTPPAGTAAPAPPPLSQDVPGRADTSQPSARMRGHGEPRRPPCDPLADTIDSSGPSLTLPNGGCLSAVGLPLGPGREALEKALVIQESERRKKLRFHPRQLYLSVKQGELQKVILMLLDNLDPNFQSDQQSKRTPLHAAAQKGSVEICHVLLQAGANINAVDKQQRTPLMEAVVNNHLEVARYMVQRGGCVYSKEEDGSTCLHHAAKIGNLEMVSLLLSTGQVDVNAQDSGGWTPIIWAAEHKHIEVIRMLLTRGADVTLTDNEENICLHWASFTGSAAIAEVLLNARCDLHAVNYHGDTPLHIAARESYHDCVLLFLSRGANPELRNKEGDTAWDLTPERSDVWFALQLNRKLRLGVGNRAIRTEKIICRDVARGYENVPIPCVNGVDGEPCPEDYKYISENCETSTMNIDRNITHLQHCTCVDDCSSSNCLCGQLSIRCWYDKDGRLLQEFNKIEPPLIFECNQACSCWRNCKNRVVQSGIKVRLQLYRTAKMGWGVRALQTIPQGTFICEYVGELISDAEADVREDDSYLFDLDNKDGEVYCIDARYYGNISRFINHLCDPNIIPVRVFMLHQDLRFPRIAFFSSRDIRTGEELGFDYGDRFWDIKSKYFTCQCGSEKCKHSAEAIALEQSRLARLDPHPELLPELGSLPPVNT
Type: cell-based
Description: MDA-MB-231 cell line was purchased from ATCC (Manassas, Va., USA). RPMI/Glutamax medium, Penicillin-Streptomycin, Heat Inactivated Fetal Bovine Serum, and D-PBS were purchased from Life Technologies (Grand Island, N.Y., USA). Odyssey blocking buffer, 800CW goat anti-mouse IgG (H+L) antibody, and Licor Odyssey Infrared Scanner were purchased from Licor Biosciences, Lincoln, Nebr., USA. H3K9me2 mouse monoclonal antibody (Cat #1220) was purchased from Abcam (Cambridge, Mass., USA). 16% Paraformaldehyde was purchased from Electron Microscopy Sciences, Hatfield, Pa., USA). MDA-MB-231 cells were maintained in complete growth medium (RPMI supplemented with 10% v/v heat inactivated fetal bovine serum) and cultured at 37° C. under 5% CO2. UNC0638 was purchased from Sigma-Aldrich (St. Louis, Mo., USA).
General Procedure for MDA-MB-231 HEK9me2 in-cell Western Assay. Compound (100 nL) was added directly to 384-well cell plate. MDA-MB-231 cells (ATCC) were seeded in assay medium (RPMI/Glutamax supplemented with 10% v/v heat inactivated fetal bovine serum and 1% Penicillin/Streptomycin, Life Technologies) at a concentration of 3,000 cells per well to a Poly-D-Lysine coated 384-well cell culture plate with 50 μL per well. Plates were incubated at 37° C., 5% CO2 for 48 hours (BD Biosciences 356697). Plates were incubated at room temperature for 30 minutes and then incubated at 37° C., 5% CO2 for additional 48 hours. After the incubation, 50 μL per well of 8% paraformaldehyde (Electron Microscopy Sciences) in PBS was added to the plates and incubated at room temperature for 20 minutes. Plates were transferred to a Biotek 406 plate washer and washed 2 times with 100 μL per well of wash buffer (1×PBS containing 0.3% Triton X-100 (v/v)). Next, 60 μL per well of Odyssey blocking buffer (Licor Biosciences) was added to each plate and incubated for 1 hour at room temperature. Blocking buffer was removed and 20 μL of monoclonal primary antibody α-H3K9me2 (Abcam) diluted 1:800 in Odyssey buffer with 0.1% Tween 20 (v/v) were added and plates were incubated overnight (16 hours) at 4° C. Plates were washed 5 times with 100 μL per well of wash buffer. Next 20 μL per well of secondary antibody was added (1:500 800CW donkey anti-mouse IgG (H+L) antibody (Licor Biosciences), 1:1000 DRAQ5 (Cell Signaling Technology) in Odyssey buffer with 0.1% Tween 20 (v/v)) and incubated for 1 hour at room temperature. The plates were washed 5 times with […] wash buffer then 2 times with 100 μL per well of water. Plates were allowed to dry at room temperature then imaged on a Licor Odyssey Infrared Scanner (Licor Biosciences) which measured integrated intensity at 700 nm and 800 nm wavelengths. Both 700 and 800 channels were scanned.
% Inhibition Calculation. First, the ratio for each well was determined by:
Each plate included fourteen control wells of DMSO only treatment (Minimum Inhibition) as well as fourteen control wells (background wells) for maximum inhibition treated with control compound UNC0638 (Background wells).
The average of the ratio values for each well was calculated and used to determine the percent inhibition for each test well in the plate. Control compound was serially diluted three-fold in DMSO for a total of 10 test concentrations beginning at 1 μM. Percent inhibition was calculated as: […]
IC50 curves were generated using triplicate wells per concentration of compound. The IC50 is the concentration of compound at which measured methylation is inhibited by 50% as interpolated from the dose response curves. IC50 values were calculated using a non-linear regression (variable slope-four parameter fit model) with by the following formula:
where Top is fixed at 100% and Bottom is fixed to 0%, [I]=concentration of inhibitor, IC50=half maximal inhibitory concentration, and n=Hill Slope.

Row | Compound | IC50
1 | CCNC1=Nc2cc(CNCCN3CCCC3)c(OC)cc2C12CCC2 [Compound 71] | 1 to 10 µM
2 | CNC1=Nc2cc(C#CCN3CCCC3)c(OC)cc2C12CCC2 [Compound 74] | < 0.1 µM
3 | COc1cc2c(cc1CNCCN1CCCC1)N=C(NC1CCOCC1)C21CCC1 [Compound 76] | 1 to 10 µM
4 | CNC1=Nc2cc(C#C[C@@H](C)N3CCCC3)c(OC)cc2C12CCC2 [Compound 86] | 0.1 to 1 µM
5 | CNC1=Nc2cc(C#CC(C)N3CCCCC3)c(OC)cc2C12CCC2 (stereo not drawn) [Compound 92] | 0.1 to 1 µM
6 | COCCNC1=Nc2cc(C#CCN3CCCCC3)c(OC)cc2C12CCC2 [Compound 99] | 0.1 to 1 µM
7 | CNC1=Nc2cc(C#CCN3CCC(F)C3)c(OC)cc2C12CCC2 (stereo not drawn) [Compound 100] | 1 to 10 µM
8 | CNc1nc2cc(CNCCN3CCCC3)c(Cl)cc2n1C(C)C [Compound 138] | 1 to 10 µM
9 | CNc1nc2cc(CNCCN3CCCC3)c(C)cc2n1C(C)C [Compound 139] | 1 to 10 µM

More lines, now with the values ahead:

Row | IC50 | Compound
10 | 0.1 to 1 µM | CNC1=Nc2cc(CNCCN3CCCC3)c(OC)cc2C12CCC2 [Compound 70]
11 | 1 to 10 µM | CCNC1=Nc2cc(CNCCN3CCC3)c(OC)cc2C12CCC2 [Compound 72]
12 | 0.1 to 1 µM | CCCNC1=Nc2cc(CNCCN3CCCC3)c(OC)cc2C12CCC2 [Compound 73]
13 | < 0.1 µM | CNC1=Nc2cc(C#CCN3CCCCC3)c(OC)cc2C12CCC2 [Compound 75, 5′-methoxy-N-methyl-6′-(3-(piperidin-1-yl)prop-1-yn-1-yl)spiro[cyclobutane-1,3′-indol]-2′-amine]
14 | 0.1 to 1 µM | CNC1=Nc2cc(C#CC(C)N3CCCC3)c(OC)cc2C12CCC2 (stereo not drawn) [Compound 84]
15 | < 0.1 µM | CNC1=Nc2cc(C#C[C@H](C)N3CCCC3)c(OC)cc2C12CCC2 [Compound 85]
